From US10064858B2, “Methods and compositions for treating bacterial infections with iron chelators” (THE UNITED STATES OF AMERICA, AS REPRESENTED BY THE …, priority 2011, dated 2018)
Values after ≈ are worked out from the molar mass of the structure shown.

Key:
WBA 2090 E. faecilium = assay: MIC, similar assays; format: cell-based
Description: Individual MICs were determined following the microdilution method recommended by CLSI in cationic-adjusted Mueller-Hinton Broth (CAMHB), or M9 media. […] Tests were performed in triplicate. MIC of iron chelators were determined for noscomial ESKAPE pathogens.

KP ndm = assay: Checkerboard assay, chelator with antibiotic (FIC); format: cell-based, K. pneumonia
Text: Drug interactions were initially evaluated with the “checkerboard” microdilution design, which provided a matrix of all drug combinations assayed in terms of fractions of the previously determined MIC. The checkerboard microdilution design is described in R. J. Tallarida, “Drug Synergism: Its Detection and Applications,” Journal of Pharmacology and Experimental Therapeutics, 865-872 (2001); and in R. L. White, et al., (1996), supra. FIGS. 39A and 39B show the wellplates having different concentrations of iron chelator and antibiotic, as labeled along the x-axis and y-axis.
The checkerboard assay was used to asses other combinations of iron chelators and antibiotics. The fractional inhibitory concentration index (FIC), which was calculated as follows: FIC=(MIC A in combination/MIC A)+(MIC B in combination/MIC B). Interaction was defined as synergistic if the FIC was <1.0, preferably <0.5, no interaction if the FIC was >1.0 and <4.0, and antagonistic if the FIC was >4.0.
The assay was run against the multi-drug resistant bacterial species AB 19606, AB 17978, KP ndm, PA PAO1, PA 27853, EC 35718, and EC 43888. Blank spaces indicate concentrations not tested. […] Against the species PA PAO1 and PA 27853, all the antibiotics except for Ami.

MRSA ATCC SA43300 = assay: Time-kill assay in CAMHB; format: cell-based, S. aureus; settings: 1×MIC and 2×MIC VK28
Description: Reductions in colony forming units (CFU)/mL were determined over time (time-kill assay) after exposure to VK28 and deferiprone (DFP), the two iron chelators that performed best in MIC assays when compared to controls. To better represent the iron content found in the human body, MIC and time-kill assays were also determined in minimal media and tissue culture media. Time-Kill assays were performed as previously described in G. P. Neupane et al., “In vitro time-kill activities of ciprofloxacin alone and in combination with the iron chelator deferasirox against Vibrio vulnificus,” European Journal of Clinical Microbiology and Infectious Diseases, 407-410 (2010); and R. L. White, et al., “Comparison of Three Different In Vitro Methods of Detecting synergy: Time-Kill, Checkerboard, and E test,” Journal of Antimicrobial Agents and Chemotherapy, 1914-1918 (1996). Initial inocula, for example 1×10^6 CFU/mL or 1×10^7 CFU/mL were challenged with iron chelator with and/or without an antibiotic. Cells were allowed to grow in CAMHB at 37° C. for 24 hours. Time-kill results were analyzed by determining the change in log 10 numbers of CFU/ml at 0, 6, and 24 h, compared to counts at 0 h. […]

Acinetobacter baumannii = assay: Growth (OD600) with VK28 in M9 media with magnesium / calcium; format: cell-based; settings: 24 hours
Description: Acinetobacter baumannii was grown similar to as described in Example 21 in M9 media containing 2 mM MgSO4 for 24 hours in the presence of 0 μg/ml, 50 μg/ml, 100 μg/ml, or 200 μg/ml VK28. The OD600 was measured at 0, 4, and 24 hour and the results are shown in the time-kill curves of FIG. 19.
In this example, strains of MR Staphylococcus aureus (MRSA), Acinetobacter baumannii (Acinetobacter), Escherichia coli (E. coli), and Pseudomonas aeruginosa (Pseudomonas) were grown in M9 media in the presence of 2 mM MgSO4 and 1.35 mM CaCl2 for 24 hours in the presence or absence of 0 μg/ml, 50 μg/ml, 100 μg/ml, or 200 μg/ml of VK28. The OD600 was measured at 24 hour and the results are shown in the bar graph of FIG. 21.

Klebsiella pneumoniae = assay: Growth (OD600) of MDR bacteria with VK28 in low-iron M9 media; format: cell-based; settings: 200 μM VK28
Description: (§1) Isolates of Extended Spectrum Beta-Lactamase (ESBL) Escherichia coli, Klebsiella pneumoniae, Pseudomonas aeruginosa, and Methicillin-Resistant Staphylococcus aureus (MRSA) were challenged with either 0 μM, 100 μM or 200 μM VK28 in low-iron M9 media after 4 hr of growth. Growth was estimated by absorbance at 600 nm at 24 hr post inoculation.

[1] = test system: Extended Spectrum Beta-Lactamase (ESBL) Escherichia coli; assay: as above; format: cell-based; settings: 200 μM VK28
Description: as §1

Pseudomonas aeruginosa = assay: as above; format: cell-based; settings: 200 μM VK28
Description: as §1

[2] = test system: Methicillin-Resistant Staphylococcus aureus (MRSA); assay: as above; format: cell-based; settings: both 100 μM and 200 μM VK28
Description: as §1

Klebsiella pneumonia = assay: Growth (OD600) with VK28 in M9 media with magnesium / calcium; format: cell-based; settings: 50-200 μg/ml VK28, 24 hours
Description: Klebsiella pneumonia was grown in M9 media containing 2 mM MgSO4 for 24 hours in the presence of 0 μg/ml, 50 μg/ml, 100 μg/ml, or 200 μg/ml VK28. The OD600 was measured at 0, 4, and 24 hour and the results are shown in the time-kill curves of FIG. 16.
Klebsiella pneumonia was grown similar to as described in Example 19 in M9 media containing 2 mM MgSO4 and 1.34 mM CaCl2 for 24 hours in the presence of 0 μg/ml, 50 μg/ml, 100 μg/ml, or 200 μg/ml VK28. The OD600 was measured at 24 hour and the results are shown in the bar graph of FIG. 17.

SMILES | MIC (WBA 2090 E. faecilium) [µg/mL] | FIC (KP ndm; in combination with Colisitin) | FIC (KP ndm; in combination with Rifampin) | time-kill effect (MRSA ATCC SA43300) | inhibition of growth (OD600) (Acinetobacter baumannii; M9 with 2 mM MgSO4, 50-200 μg/ml VK28) | inhibition of growth (OD600) (Acinetobacter baumannii; M9 with 2 mM MgSO4 and 1.35 mM CaCl2) | growth (OD600) at 24 hr post inoculation (Klebsiella pneumoniae) | growth (OD600) at 24 hr post inoculation [1] | OD600 at 24 hr post inoculation (Pseudomonas aeruginosa) | OD600 at 24 hr post inoculation [2] | inhibition of growth (OD600) (Klebsiella pneumonia; M9 with 2 mM MgSO4) | inhibition of growth (OD600) (Klebsiella pneumonia; M9 with 2 mM MgSO4 and 1.34 mM CaCl2)
Cc1c(O)c(=O)ccn1C [ApoL1, 3-hydroxy-1,2-dimethyl-4(1H)-pyridone] | 600 to 700 (≈ 4.31 to 5.03 mM) | 1.25 | 0.75 | – | – | – | – | – | – | – | – | –
OCCN1CCN(Cc2ccc(O)c3ncccc23)CC1 [VK28, 5-(4-(2-hydroxyethyl)piperazin-1-ylmethyl)-8-hydroxyquinoline] | – | – | – | bacteriostatic (considered bacteriostatic if the inoculum's size was reduced by 0 to <3 log 10 CFU/ml) | inhibition of growth of Acinetobacter baumannii is not reduced in the presence of magnesium | inhibition of growth of a number of strains of bacteria is not reduced in the presence of magnesium and calcium | reduced | reduced | significantly reduced | significantly reduced | inhibition of growth is not reduced in the presence of magnesium | inhibition of growth is not reduced in the presence of magnesium and calcium
